Reference: ChEMBL document CHEMBL1131087, “New cyclooxygenase-2/5-lipoxygenase inhibitors. 3. 7-tert-butyl-2, 3-dihydro-3,3-dimethylbenzofuran derivatives as gastrointestinal safe antiinflammatory and analgesic agents: variations at the 5 position” (J Med Chem, 1998)
Active and inactive are the calls of the source. No cut-off for these calls is given here.

Key:
Rattus norvegicus [1] = assay: Inhibition of paw swelling relative to the tebufelone in rat. Value was reported as Carrageenan paw edema index; type: functional
[2] = molecular target: T1, Prostaglandin G/H synthase 2 (Homo sapiens, UniProt P35354)
T1 sequence (P35354 whole entry): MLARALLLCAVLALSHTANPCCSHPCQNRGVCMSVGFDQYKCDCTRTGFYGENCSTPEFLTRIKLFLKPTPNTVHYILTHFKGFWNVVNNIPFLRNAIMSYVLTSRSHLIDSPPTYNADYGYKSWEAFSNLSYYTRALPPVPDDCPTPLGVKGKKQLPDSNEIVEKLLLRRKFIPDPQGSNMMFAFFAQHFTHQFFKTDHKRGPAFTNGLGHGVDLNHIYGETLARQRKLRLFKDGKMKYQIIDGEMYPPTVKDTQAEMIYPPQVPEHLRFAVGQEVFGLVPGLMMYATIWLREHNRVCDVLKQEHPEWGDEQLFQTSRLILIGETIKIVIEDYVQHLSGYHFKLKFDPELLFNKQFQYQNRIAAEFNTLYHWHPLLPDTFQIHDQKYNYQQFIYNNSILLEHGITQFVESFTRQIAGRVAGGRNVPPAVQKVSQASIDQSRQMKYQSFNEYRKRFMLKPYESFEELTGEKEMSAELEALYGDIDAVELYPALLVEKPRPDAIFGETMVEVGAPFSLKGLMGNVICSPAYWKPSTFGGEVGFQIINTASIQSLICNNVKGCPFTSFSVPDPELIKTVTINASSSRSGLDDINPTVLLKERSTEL
Description: Inhibitory activity against prostaglandin G/H synthase 2 (COX-2)

[3] = molecular target: Prostaglandin G/H synthase 1 (Homo sapiens, UniProt P23219)
Description: Inhibitory activity against prostaglandin G/H synthase 1 (COX-1)

Rattus norvegicus [4] = assay: Comparative activity versus Dihydrodimethylbenzofurans in the CPE (Carrageenan paw edema) assay; (-) indicates the compound is inactive; type: functional, organism-based
[5] = molecular target: T2, Polyunsaturated fatty acid 5-lipoxygenase (Homo sapiens, UniProt P09917); assay: Inhibition of 5-Lipoxygenase (5-LOX)
T2 sequence (P09917 whole entry): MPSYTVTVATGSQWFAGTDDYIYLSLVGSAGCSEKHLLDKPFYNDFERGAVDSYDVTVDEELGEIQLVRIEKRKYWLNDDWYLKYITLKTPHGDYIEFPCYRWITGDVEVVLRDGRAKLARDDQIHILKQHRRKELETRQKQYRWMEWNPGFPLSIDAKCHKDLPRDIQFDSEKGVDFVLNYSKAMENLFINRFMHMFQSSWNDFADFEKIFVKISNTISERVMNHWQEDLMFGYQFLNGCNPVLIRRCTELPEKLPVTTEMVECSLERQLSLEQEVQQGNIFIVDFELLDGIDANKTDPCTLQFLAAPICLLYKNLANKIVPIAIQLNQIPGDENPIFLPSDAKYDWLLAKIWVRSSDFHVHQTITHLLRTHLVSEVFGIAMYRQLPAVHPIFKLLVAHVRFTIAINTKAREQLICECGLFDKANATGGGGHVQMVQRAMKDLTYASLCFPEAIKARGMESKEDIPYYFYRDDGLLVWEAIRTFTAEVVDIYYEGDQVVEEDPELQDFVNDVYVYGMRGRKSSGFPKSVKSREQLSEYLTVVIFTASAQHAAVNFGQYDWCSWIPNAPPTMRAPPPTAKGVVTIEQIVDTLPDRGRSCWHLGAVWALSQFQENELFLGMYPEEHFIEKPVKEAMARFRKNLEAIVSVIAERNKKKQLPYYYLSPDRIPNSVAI

Rattus norvegicus [6] = species on record: Rattus norvegicus; assay: Compound was tested for its analgesic activity in phenylquinone-induced abdominal constriction assay(PAC); type: functional; details: Abdomen
Rattus norvegicus [7] = species on record: Rattus norvegicus; assay: Analgesic activity in phenylquinone-induced abdominal constriction assay (PAC); type: functional, Abdomen; design: concentration or dose not given beside the values
Rattus norvegicus [8] = assay: Analgesic activity (50 mg/kg, sc)in phenylquinone-induced abdominal constriction assay(PAC); type: functional, Abdomen

Sequence of Prostaglandin G/H synthase 1 (P23219 whole entry): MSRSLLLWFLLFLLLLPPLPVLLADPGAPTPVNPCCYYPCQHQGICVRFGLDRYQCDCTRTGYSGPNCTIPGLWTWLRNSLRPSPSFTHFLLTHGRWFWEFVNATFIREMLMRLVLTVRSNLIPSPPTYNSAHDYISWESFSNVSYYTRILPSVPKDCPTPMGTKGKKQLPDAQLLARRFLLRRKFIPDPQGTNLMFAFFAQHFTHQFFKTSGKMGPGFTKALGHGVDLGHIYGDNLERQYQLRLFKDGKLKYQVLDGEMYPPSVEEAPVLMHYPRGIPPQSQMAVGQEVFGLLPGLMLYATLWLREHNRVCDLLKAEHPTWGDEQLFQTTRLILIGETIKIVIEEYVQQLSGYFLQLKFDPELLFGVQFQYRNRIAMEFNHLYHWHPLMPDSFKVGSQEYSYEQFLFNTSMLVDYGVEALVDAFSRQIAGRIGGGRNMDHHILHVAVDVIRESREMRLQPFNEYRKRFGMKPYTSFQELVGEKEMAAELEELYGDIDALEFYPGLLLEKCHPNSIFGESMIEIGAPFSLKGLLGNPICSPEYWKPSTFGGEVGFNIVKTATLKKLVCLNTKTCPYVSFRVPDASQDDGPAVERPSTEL

Row | Structure (SMILES) | CPE index (Rattus norvegicus [1]) | IC50 [2] [nM] | IC50 [3] [nM] | Inhibition (Rattus norvegicus [7]) [%] | also measured
1 | CC(C)(C)c1cc(/C=C2/SC(N)=NC2=O)cc2c1OCC2(C)C | 0.07 | 3000 | 5000 |  | Activity (Rattus norvegicus [4]): inactive
2 | CN(C(=O)c1cc(C(C)(C)C)c2c(c1)C(C)(C)CO2)C1CC1 | 1.82 | 1000 | 5000 |  | IC50 [5]: 12000 nM; ED50 (Rattus norvegicus [6]): 10 mg/kg
3 | Cc1cc(/C=C\c2cc(C(C)(C)C)c3c(c2)C(C)(C)CO3)[nH]n1 | 0.56 |  |  | 35 | 
4 | CC(C)(C)c1cc(Nc2ccccc2C(=O)O)cc2c1OCC2(C)C | 0.78 | 4000 | 2500 |  | 
5 | CC(C)(C)c1cc(C(=O)Nc2nccs2)cc2c1OCC2(C)C | 0.49 |  |  |  | 
6 | CC(C)(C)c1cc(/C=C\c2cccs2)cc2c1OCC2(C)C | 0.77 | 35 | 20 | 13 | IC50 [5]: 6000 nM
7 | CCCNC(=O)Nc1cc(C(C)(C)C)c2c(c1)C(C)(C)CO2 | 0.41 |  |  |  | 
8 | CC(C)(C)c1cc(C(=O)c2ccco2)cc2c1OCC2(C)C | 0.7 |  |  | 24 | 
9 | CC(C)(C)c1cc(C(=O)O)cc2c1OCC2(C)C | 0.47 |  |  |  | 
10 | CC(C)(C)c1cc(-c2cn3cc[s+]([O-])c3n2)cc2c1OCC2(C)C (stereo not drawn) | 0.96 |  |  |  | 
11 | CC(C)(C)c1cc(/C=C(/C(=O)O)c2cccs2)cc2c1OCC2(C)C | 0.76 |  |  | 19 | 
12 | CC(C)NC(=O)c1cc(C(C)(C)C)c2c(c1)C(C)(C)CO2 | 1.09 |  |  | 43 | 
13 | Cn1cccc1C(=O)c1cc(C(C)(C)C)c2c(c1)C(C)(C)CO2 | 1.24 | 45 | 35 | 57 | 
14 | CC(C)(C)c1cc(C(=O)O)cc(C(C)(C)C)c1O |  |  |  |  | Activity (Rattus norvegicus [4]): inactive
15 | CC(C)(C)c1cc(C(N)=O)cc(C(C)(C)C)c1O |  |  |  |  | Activity (Rattus norvegicus [4]): inactive
16 | CC(C)(C)c1cc(C(=O)NCCC2CC2)cc2c1OCC2(C)C | 0.06 |  |  |  | 
17 | CC(C)(C)c1cc(C(=O)NC2CCC2)cc2c1OCC2(C)C | 0 |  |  |  | 
18 | COC(=O)c1cc(C(C)(C)C)c2c(c1)C(C)(C)CO2 | 0.16 |  |  |  | 
19 | CC(C)(C)c1cc(/C=C\c2ccccn2)cc2c1OCC2(C)C | 0.5 |  |  |  | Activity (Rattus norvegicus [4]): inactive
20 | CC(C)(C)c1cc(C(=O)N2CCSCC2)cc2c1OCC2(C)C | 0.71 |  |  | 29 | 
21 | COCCNC(=O)c1cc(C(C)(C)C)c2c(c1)C(C)(C)CO2 | 1.47 | 30 | 1000 | 84 | IC50 [5]: 50000 nM

Row | Structure (SMILES) | CPE index (Rattus norvegicus [1]) | IC50 [2] [nM] | IC50 [3] [nM] | Inhibition (Rattus norvegicus [7]) [%] | also measured
22 | CC(C)(C)c1cc(C(=O)c2ccsc2)cc2c1OCC2(C)C | 0.62 |  |  | 40 | 
23 | CC(C)(C)c1cc(C(=O)NCCO)cc2c1OCC2(C)C | 0.33 |  |  |  | 
24 | CC(C)(C)c1cc(C(=O)NCC2CC2)cc2c1OCC2(C)C | 0.44 |  |  |  | 
25 | CC(C)(C)c1cc(C(=O)c2nccs2)cc2c1OCC2(C)C | 0.75 |  |  | 28 | 
26 | CC(C)(C)c1cc(C(=O)NC2=NCCS2)cc2c1OCC2(C)C | 0.81 |  |  | 65 | 
27 | CC(C)(C)c1cc(C(=O)N2CCCCC2)cc2c1OCC2(C)C | 0.52 |  |  | 34 | 
28 | Cc1nc(-c2cc(C(C)(C)C)c3c(c2)C(C)(C)CO3)no1 | 0.83 |  |  |  | 
29 | CC(C)(C)c1cc(-c2csc(N=C(N)N)n2)cc2c1OCC2(C)C | 1.38 | 9000 | 15000 | 77 | 
30 | CC(C)(C)c1cc(C(=O)c2cccs2)cc2c1OCC2(C)C | 0.58 | 38 | 45 | 34 | IC50 [5]: 10000 nM
31 | CCCNC(=O)c1cc(C(C)(C)C)c2c(c1)C(C)(C)CO2 | 1.17 | 950 | 550 | 63 | IC50 [5]: > 50000 nM
32 | Cc1cc(/C=C\c2cc(C(C)(C)C)c3c(c2)C(C)(C)CO3)on1 | 0 |  |  |  | Activity (Rattus norvegicus [4]): inactive
33 | CCN(C)C(=O)c1cc(C(C)(C)C)c2c(c1)C(C)(C)CO2 | 0.86 | 4500 | 2500 |  | IC50 [5]: 22000 nM; ED50 (Rattus norvegicus [6]): 19 mg/kg
34 | CCN(C(=O)c1cc(C(C)(C)C)c2c(c1)C(C)(C)CO2)C1CC1 | 1.14 |  |  |  | 
35 | CC(C)(C)c1cc(C(=O)NC2CCCC2)cc2c1OCC2(C)C | 0 |  |  |  | 
36 | CC(C)(C)c1cc(-c2ccco2)cc2c1OCC2(C)C | 0.93 |  |  | 7 | 
37 | CC(C)(C)c1cc(C(=O)c2ccoc2)cc2c1OCC2(C)C | 0.68 |  |  | 3 | 
38 | CC(C)(C)c1cc(C(=N)N2CCCC2)cc2c1OCC2(C)C | 0.8 | > 100000 | > 100000 | 0 | IC50 [5]: 30000 nM
39 | CCCCCNC(=O)c1cc(C(C)(C)C)c2c(c1)C(C)(C)CO2 | 0.16 | 250 | 2000 |  | 
40 | CCNC(=O)c1cc(C(C)(C)C)c2c(c1)C(C)(C)CO2 | 0.88 | 6000 | 20000 |  | Inhibition (Rattus norvegicus [8]): 56%
41 | CC(C)(C)c1cc(-c2cccs2)cc2c1OCC2(C)C | 0.92 | 70 | 200 | 52 | IC50 [5]: 9000 nM
42 | CC(C)(C)c1cc(C=C2CCOC2=O)cc2c1OCC2(C)C | 0.93 | 3.5 | 45 |  | IC50 [5]: 4000 nM

Row | Structure (SMILES) | CPE index (Rattus norvegicus [1]) | IC50 [2] [nM] | IC50 [3] [nM] | Inhibition (Rattus norvegicus [7]) [%] | also measured
43 | CCCN(C)C(=O)c1cc(C(C)(C)C)c2c(c1)C(C)(C)CO2 | 0.91 |  |  | 36 | 
44 | CC(=O)Nc1cc(C(C)(C)C)c2c(c1)C(C)(C)CO2 | 0.66 | 3500 | 3500 | 22 | 
45 | CC(=O)Nc1cc(C(C)(C)C)c(O)c(C(C)(C)C)c1 |  |  |  |  | Activity (Rattus norvegicus [4]): inactive
46 | CC(C)(C)c1cc(C(=O)Nc2ccccc2)cc2c1OCC2(C)C | 0.01 |  |  |  | 
47 | CC(C)(C)c1cc(-c2cocn2)cc2c1OCC2(C)C | 0.19 |  |  |  | 
48 | CCCN(C(=O)c1cc(C(C)(C)C)c2c(c1)C(C)(C)CO2)C1CC1 | 1.41 | 4000 | 4500 |  | 
49 | CCCCNC(=O)c1cc(C(C)(C)C)c2c(c1)C(C)(C)CO2 | 0.46 | 220 | 2500 |  | 
50 | CC(C)(C)c1cc(/C=C\c2cccnc2)cc2c1OCC2(C)C | 0.78 |  |  | 45 | 
51 | CC(C)(C)c1cc(C(=O)NCC(O)CO)cc2c1OCC2(C)C (stereo not drawn) | 0.51 |  |  |  | 
52 | CC(C)(C)c1cc(-c2cn3c(n2)S(=O)(=O)C=C3)cc(C(C)(C)C)c1O |  |  |  |  | Activity (Rattus norvegicus [4]): inactive
53 | CC1(C)CC(c2cc(C(C)(C)C)c3c(c2)C(C)(C)CO3)=NO1 | 0.56 | 200 | 70 | 80 | 
54 | CC(C)(C)c1cc(-c2cscn2)cc2c1OCC2(C)C | 1.53 |  |  | 59 | 
55 | CN(C)CCNC(=O)c1cc(C(C)(C)C)c2c(c1)C(C)(C)CO2 | 0 |  |  |  | 
56 | CC(C)(C)c1cc(C(=O)N2CCCC2)cc2c1OCC2(C)C | 0.78 |  |  |  | 
57 | CC(C)(C)c1cc(-c2cn3ccsc3n2)cc2c1OCC2(C)C | 0.81 | 15 | 75 | 68 | IC50 [5]: 10000 nM
58 | CC(C)(C)c1cc(-c2csc(N)n2)cc2c1OCC2(C)C | 0.26 |  |  |  | 
59 | CC(C)(C)c1cc(C(=O)NC2CC2)cc2c1OCC2(C)C | 0.68 | 550 | 290 | 20 | IC50 [5]: > 50000 nM
60 | CN(C)C(=N)c1cc(C(C)(C)C)c2c(c1)C(C)(C)CO2 | 0.47 |  |  |  | 
61 | Cc1nc(-c2cc(C(C)(C)C)c(O)c(C(C)(C)C)c2)no1 |  |  |  |  | Activity (Rattus norvegicus [4]): inactive
62 | CCNC(=O)Nc1cc(C(C)(C)C)c2c(c1)C(C)(C)CO2 | 0.73 |  |  | 36 | 
